Measured values published in US20250277012A1 (Protagonist Therapeutics, Inc., priority 2021, published 2025).
Read-outs that look alike come from different tables or passages of the source. Starred links: 1 amine or outer side, 2 acyl side, 3 side chain; linkers in the order of their positions; H or OH if unused. Positions of bridges follow the written chain, without caps; N, C: chain ends. Non-standard residues stand in square brackets, D forms with d. Residues, ends and D or L forms follow the SMILES beside them. Groups on a side chain read outwards from the residue. *: point of attachment. CH3O(CH2CH2O)11CH2CH2CO = COCCOCCOCCOCCOCCOCCOCCOCCOCCOCCOCCOCCC(=O)*; X1 = C[N+](C)(CCNC(=O)CCCCCCCCCCCCCCCCC(=O)O)CC(=O)*; X5 = CCCCCCCCCCCCCCCC(=O)NCC[N+](C)(C)CC(=O)*; C18 diacid = O=C(O)CCCCCCCCCCCCCCCCC(=O)*; Dip = N[C@H](C(=O)O)C(c1ccccc1)c1ccccc1; X6 = O=C([C@H](CC1N=NN=N1)N[*:1])[*:2]; NMeF = CN[C@@H](Cc1ccccc1)C(=O)O; β3hF = N[C@H](CC(=O)O)Cc1ccccc1; NMeK = CN[C@@H](CCCCN)C(=O)O; Isovaleryl = CC(C)CC(=O)*; Dap = NC[C@H](N)C(=O)O; AEEA = NCCOCCOCC(=O)O; Ahx = NCCCCCC(=O)O

Experiments:
ferroportin [1] = molecular target: T1, ferroportin (Homo sapiens, UniProt Q9NP59); assay: FPN activity assay: ferroportin-GFP internalization/degradation in HEK293 cells; format: cell-based; design: expressed in transfected cells; details: ferroportin-GFP internalization/degradation, Table 6E, read-out: FPN IC50
T1 sequence (Q9NP59 1-571): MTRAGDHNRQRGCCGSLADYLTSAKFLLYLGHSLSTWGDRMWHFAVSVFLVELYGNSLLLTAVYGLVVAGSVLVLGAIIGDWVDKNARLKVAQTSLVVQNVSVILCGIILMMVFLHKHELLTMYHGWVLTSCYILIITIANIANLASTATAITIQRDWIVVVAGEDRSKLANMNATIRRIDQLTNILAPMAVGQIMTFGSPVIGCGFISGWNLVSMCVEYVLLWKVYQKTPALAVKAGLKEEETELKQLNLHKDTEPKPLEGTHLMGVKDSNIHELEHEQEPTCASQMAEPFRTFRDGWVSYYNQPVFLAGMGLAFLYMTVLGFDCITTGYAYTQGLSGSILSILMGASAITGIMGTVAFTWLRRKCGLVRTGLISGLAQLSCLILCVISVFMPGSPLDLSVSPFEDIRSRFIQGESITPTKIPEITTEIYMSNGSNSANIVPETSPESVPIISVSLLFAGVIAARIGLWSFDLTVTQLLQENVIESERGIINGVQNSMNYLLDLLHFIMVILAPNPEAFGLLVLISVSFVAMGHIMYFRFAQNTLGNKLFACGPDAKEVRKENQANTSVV
Procedure: Following internalization, the ferroporin protein is degraded.
A retro inverse peptide is a peptide with a reversed sequence in all D amino acids. An example is that Hy-Glu-Thr-His-NH2 becomes Hy-DHis-DThr-DGlu-NH2. The EC50 of these reference compounds for ferroportin internalization/degradation was determined according to the FPN activity assay described above. These peptides served as control standards.

ferroportin [2] = molecular target: T1, ferroportin; assay: T47D cell-based ferroportin internalization assay in presence of mouse serum albumin (MSA); design: a human breast carcinoma adherent cell line which endogenously expresses ferroportin; host or cells: T47D; details: Table 6E
Outline: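 Peptide potency for inducing ferroportin internalization was measured in T47D cells in the presence of serum albumin. Cells grown in RPMI with fetal bovine serum were seeded in 96-well plates at 80-100 k cells per well in 100 ul and rested overnight. Dilution series of test peptides were preincubated 30 min at room temperature, then added to the cells after the medium was aspirated.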

[3] = T47D internalization assay in presence of mouse serum albumin (MSA)
[4] = T47D internalization assay with MSA

| SMILES | DC50 (ferroportin [1]; HEK293 cells) | IC50 (ferroportin [2]; [3]) | DC50 (ferroportin [1]; at least 18 hours incubation) | IC50 (ferroportin [2]; [4]) |
| --- | --- | --- | --- | --- |
| CC(C)CC(=O)N[C@@H](CCC(=O)O)C(=O)N[C@H](C(=O)N[C@@H](Cc1c[nH]cn1)C(=O)N[C@H](C(=O)N1CCC[C@H]1C(=O)N[C@H]1CSSC[C@@H](C(=O)N(C)[C@@H](CCCCNC(=O)COCCOCCNC(=O)COCCOCCNC(=O)[C@H](CN)NC(=O)CCCCCCCCCCCCCCCCC(=O)O)C(=O)N(C)[C@@H](Cc2ccccc2)C(=O)N[C@H](CCCCN)C(N)=O)NC1=O)C(c1ccccc1)c1ccccc1)[C@@H](C)O [compound 291] (Isovaleryl-ETH[Dip]PCC[NMeK]([AEEA-AEEA-Dap-C18 diacid])[NMeF][dK]-NH2; disulfide 6-7) | 10 to 100 nM | 10 to 100 nM |  |  |
| CC(C)CC(=O)N[C@@H](CC1N=NN=N1)C(=O)N[C@H](C(=O)N[C@@H](Cc1cnc[nH]1)C(=O)N[C@H](C(=O)N1CCC[C@H]1C(=O)N[C@H]1CSSC[C@@H](C(=O)N(C)[C@@H](CCCCNC(=O)COCCOCCNC(=O)COCCOCCNC(=O)[C@H](CN)NC(=O)CCCCCCCCCCCCCCCCC(=O)O)C(=O)N[C@H](CC(=O)N[C@H](CCCCN)C(N)=O)Cc2ccccc2)NC1=O)C(c1ccccc1)c1ccccc1)[C@@H](C)O [compound 288] (Isovaleryl-[X6]TH[Dip]PCC[NMeK]([AEEA-AEEA-Dap-C18 diacid])[β3hF][dK]-NH2; disulfide 6-7) | 10 to 100 nM | 10 to 100 nM |  |  |
| COCCOCCOCCOCCOCCOCCOCCOCCOCCOCCOCCOCCC(=O)NCCCC[C@@H](NC(=O)C[C@H](Cc1ccccc1)NC(=O)[C@H](CCCCNC(=O)COCCOCCNC(=O)COCCOCCNC(=O)[C@H](CN)NC(=O)CCCCCCCCCCCCCCCCC(=O)O)N(C)C(=O)[C@@H]1CSSC[C@H](NC(=O)[C@@H]2CCCN2C(=O)[C@@H](NC(=O)[C@H](Cc2c[nH]cn2)NC(=O)[C@@H](NC(=O)[C@H](CCC(=O)OC)NC(=O)CC(C)C)[C@@H](C)O)C(c2ccccc2)c2ccccc2)C(=O)N1)C(N)=O [compound 254] (Isovaleryl-E(OMe)TH[Dip]PCC[NMeK]([AEEA-AEEA-Dap-C18 diacid])[β3hF][dK](CH3O(CH2CH2O)11CH2CH2CO)-NH2; disulfide 6-7) | 10 to 100 nM | 10 to 100 nM |  |  |
| COC(=O)CC[C@H](NC(=O)CC(C)C)C(=O)N[C@@H](CO)C(=O)N[C@@H](Cc1c[nH]cn1)C(=O)N(C)[C@@H](Cc1ccccc1)C(=O)N1CCC[C@H]1C(=O)N[C@H]1CSSC[C@@H](C(=O)N(C)[C@@H](CCCCNC(=O)CCCCCNC(=O)C[N+](C)(C)CCNC(=O)CCCCCCCCCCCCCCCCC(=O)O)C(=O)N[C@H](C(=O)N[C@H](CCCCN)C(N)=O)C(c2ccccc2)c2ccccc2)NC1=O [compound 148] (Isovaleryl-E(OMe)SH[NMeF]PCC[NMeK]([Ahx-X1])[Dip][dK]-NH2; disulfide 6-7) |  |  | > 500 nM | > 500 nM |
| CC(C)CC(=O)N[C@@H](CCC(=O)O)C(=O)N[C@H](C(=O)N[C@@H](Cc1c[nH]cn1)C(=O)N[C@H](C(=O)N1CCC[C@H]1C(=O)N[C@H]1CSSC[C@@H](C(=O)N(C)[C@@H](CCCCNC(=O)COCCOCCNC(=O)COCCOCCNC(=O)[C@H](CN)NC(=O)CCCCCCCCCCCCCCCCC(=O)O)C(=O)N[C@H](CC(=O)N[C@H](CCCCN)C(=O)N(C)[C@@H](Cc2ccccc2)C(N)=O)Cc2ccccc2)NC1=O)C(c1ccccc1)c1ccccc1)[C@@H](C)O [compound 263] (Isovaleryl-ETH[Dip]PCC[NMeK]([AEEA-AEEA-Dap-C18 diacid])[β3hF][dK][NMeF]-NH2; disulfide 6-7) | 10 to 100 nM | 10 to 100 nM |  |  |
| COC(=O)CC[C@H](NC(=O)CC(C)C)C(=O)N[C@H](C(=O)N[C@@H](Cc1c[nH]cn1)C(=O)N[C@H](C(=O)N1CCC[C@H]1C(=O)N[C@H]1CSSC[C@@H](C(=O)N(C)[C@@H](CCCCNC(=O)COCCOCCNC(=O)COCCOCCNC(=O)[C@H](CN)NC(=O)CCCCCCCCCCCCCCCCC(=O)O)C(=O)N[C@H](CC(N)=O)Cc2ccccc2)NC1=O)C(c1ccccc1)c1ccccc1)[C@@H](C)O [compound 256] (Isovaleryl-E(OMe)TH[Dip]PCC[NMeK]([AEEA-AEEA-Dap-C18 diacid])[β3hF]-NH2; disulfide 6-7) | 1 to 10 nM | 10 to 100 nM |  |  |
| CCCCCCCCCCCCCCCC(=O)NCC[N+](C)(C)CC(=O)NCCCCCC(=O)NCCCC[C@@H](C(=O)N[C@H](C(=O)N[C@H](CCCCN)C(N)=O)C(c1ccccc1)c1ccccc1)N(C)C(=O)[C@@H]1CSSC[C@H](NC(=O)[C@@H]2CCCN2C(=O)[C@@H](NC(=O)[C@H](Cc2cnc[nH]2)NC(=O)[C@@H](NC(=O)[C@H](CCC(=O)O)NC(=O)CC(C)C)[C@@H](C)O)C(c2ccccc2)c2ccccc2)C(=O)N1 [compound 197] (Isovaleryl-ETH[Dip]PCC[NMeK]([Ahx-X5])[Dip][dK]-NH2; disulfide 6-7) |  |  |  | 1 to 10 nM |
